Assay [1] deals with T1, hKv3.2 channel (Homo sapiens, UniProt Q96PR1).
T1 construct: expressed in transfected cells; host or cells: HEK293T
T1 sequence (Q96PR1 1-638): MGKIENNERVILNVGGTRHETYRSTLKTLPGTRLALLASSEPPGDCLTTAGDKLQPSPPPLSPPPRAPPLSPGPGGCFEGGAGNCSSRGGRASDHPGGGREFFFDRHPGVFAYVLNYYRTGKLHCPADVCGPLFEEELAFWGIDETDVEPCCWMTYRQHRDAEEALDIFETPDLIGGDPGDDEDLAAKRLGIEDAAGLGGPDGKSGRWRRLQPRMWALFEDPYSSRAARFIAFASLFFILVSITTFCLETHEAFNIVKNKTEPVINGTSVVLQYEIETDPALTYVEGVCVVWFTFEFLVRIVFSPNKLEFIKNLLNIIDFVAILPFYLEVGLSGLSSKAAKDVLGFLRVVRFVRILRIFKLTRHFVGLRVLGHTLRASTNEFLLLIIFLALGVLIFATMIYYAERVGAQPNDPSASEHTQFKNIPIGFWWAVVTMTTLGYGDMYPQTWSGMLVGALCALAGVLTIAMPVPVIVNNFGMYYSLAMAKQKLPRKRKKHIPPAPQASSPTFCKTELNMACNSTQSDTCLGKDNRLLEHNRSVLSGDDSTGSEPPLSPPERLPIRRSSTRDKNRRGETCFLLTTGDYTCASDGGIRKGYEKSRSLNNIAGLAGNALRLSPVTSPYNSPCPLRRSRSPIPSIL
As to the kind of experiment: Whole-cell patch clamp, hKv3.2 channel overexpressed in HEK293T cells. As to conditions: 1 μM peptide, mean ± S.E., n ≥ 3, SEM. In kind it is cell-based. Here is the method:
(§1) To investigate the electrophysiological activities of BmK86-P1, the whole-cell patch clamp technique was applied to test the effects of BmK86-P1 on multiple potassium channels. The hKv1.1, hKv1.2, hKv1.3, hKv1.6, hKv3.2, mKv4.1, rKv4.2, rKv4.3 and hERG channels were overexpressed in HEK293T cells, then the inhibitory effects of BmK86-P1 at 1 μM on these potassium channels were measured. […] To further investigate the affinity of BmK86-P1 inhibiting the hKv1.2 channel, a dose-dependent study was performed by examining the inhibitory effects of different concentrations of BmK86-P1.
(§2) All potassium channel expression vectors were given by others or constructed by ourselves. HEK293T cells were cultured in Dulbecco’s modified Eagle medium (Gibco, Pittsburgh, PA, USA) with 10% fetal bovine serum and penicillin/streptomycin (100 units/mL) in a 5% CO2 incubator at 37 °C. […] The potassium currents were recorded after transfection for 1 to 3 days.
(§3) The channel currents were measured and recorded by whole-cell patch clamp technology according to previously published references. […] The channel currents were recorded at room temperature (~25 °C) using an EPC 10 patch clamp amplifier. […]
(§4) The ClampFit (Molecular Devices, Sunnyvale, CA, USA) and SigmaPlot software ([…], Chicago, IL, USA) were used to analyze the recorded data. […]
(The patch-clamp technique gives a direct electrical read-out from membranes.)

The target in assay [2] is T2, hKv1.2-D352E (Homo sapiens, UniProt P16389, D352E).
T2 construct: expressed in transfected cells; host or cells: HEK293T
Nature of the assay: Whole-cell patch clamp, hKv1.2 channel mutant D352E. Format: cell-based. As to conditions: 100 nM peptide, HEK293T, mean ± S.E., n ≥ 3, SEM. As to the method: (§5) To determine the functional sites of the hKv1.2 channel responsible for the selectivity of BmK86-P1, six hKv1.2 mutants were obtained based on sequence differences between the pore regions of the hKv1.2 and hKv1.1 channels (Figure 4A). Then, the activities of 100 nM BmK86-P1 on these six mutant channels were tested. […] The other three mutant channels (hKv1.2-D352E, hKv1.2-R354A and hKv1.2-P359S) still kept similar sensitivities toward BmK86-P1 compared with the wild-type hKv1.2 channel (Figure 4H,I,K,N).
(§6) All potassium channel expression vectors were given by others or constructed by ourselves. HEK293T cells were cultured in Dulbecco’s modified Eagle medium (Gibco, Pittsburgh, PA, USA) with 10% fetal bovine serum and penicillin/streptomycin (100 units/mL) in a 5% CO2 incubator at 37 °C. Potassium channel expression vectors and pEGFP-N1 were co-transfected into HEK293T cells using TurboFect in vitro Transfection Reagent (Thermo Scientific, Waltham, MA, USA) according to the manufacturer’s instructions. The potassium currents were recorded after transfection for 1 to 3 days.
as §3

Assay [3] has as its target T3, hKv1.2-T383V (Homo sapiens, UniProt P16389, T383V).
T3 construct: expressed in transfected cells; host or cells: HEK293T
As to the kind of experiment: Whole-cell patch clamp, hKv1.2 channel mutant T383V. As to conditions: 100 nM peptide, HEK293T, mean ± S.E., n ≥ 3, SEM. In kind it is cell-based. As to the method: as §5, §6, §3

Assay [4] addresses T4, hKv1.2-P359S (Homo sapiens, UniProt P16389, P359S).
T4 construct: expressed in transfected cells; host or cells: HEK293T
Nature of the assay: Whole-cell patch clamp, hKv1.2 channel mutant P359S. As to conditions: 100 nM peptide, HEK293T, mean ± S.E., n ≥ 3, SEM. In kind it is cell-based. Here is the method:
as §5, §6, §3

For assay [5], the target named is T5, rKv4.2 channel (Rattus norvegicus, UniProt Q63881).
T5 construct: expressed in transfected cells; host or cells: HEK293T
T5 sequence (Q63881 1-630): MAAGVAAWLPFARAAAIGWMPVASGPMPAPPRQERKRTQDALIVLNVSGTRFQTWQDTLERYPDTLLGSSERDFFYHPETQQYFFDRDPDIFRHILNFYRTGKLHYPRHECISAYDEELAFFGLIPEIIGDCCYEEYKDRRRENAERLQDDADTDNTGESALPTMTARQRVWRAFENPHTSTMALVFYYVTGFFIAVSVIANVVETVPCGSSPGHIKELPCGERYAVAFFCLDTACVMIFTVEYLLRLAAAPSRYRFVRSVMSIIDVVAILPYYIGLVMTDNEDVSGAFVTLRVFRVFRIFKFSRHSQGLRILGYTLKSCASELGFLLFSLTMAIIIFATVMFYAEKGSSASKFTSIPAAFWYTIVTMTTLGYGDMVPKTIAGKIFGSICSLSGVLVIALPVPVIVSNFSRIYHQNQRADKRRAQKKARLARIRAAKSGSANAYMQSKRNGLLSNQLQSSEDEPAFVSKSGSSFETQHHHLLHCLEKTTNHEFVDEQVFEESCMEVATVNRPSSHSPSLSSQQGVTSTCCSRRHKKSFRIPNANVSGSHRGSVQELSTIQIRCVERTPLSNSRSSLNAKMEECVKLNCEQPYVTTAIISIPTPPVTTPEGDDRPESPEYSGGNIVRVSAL
Nature of the assay: Whole-cell patch clamp, rKv4.2 channel overexpressed in HEK293T cells. In kind it is cell-based. As to conditions: 1 μM peptide, mean ± S.E., n ≥ 3, SEM. As to the method:
as §1, §2, §3, §4

For assay [6], the system named is Kv1.3 channel. As to conditions: read-out: IC50, inhibition of the current of Kv1.3 channel; cited from earlier work. The text has this:
The BmK86 toxin gene was first discovered from the venom gland cDNA library of Mesobuthus martensii Karsch. It encodes a signal peptide with 22 amino acid residues and a mature toxin with 35 residues (Figure 6A). The stretch of six amino acids in the N-terminus of BmK86 was thought to be a signal peptide rather than the N-terminal portion of the mature peptide. […] BmK86 could inhibit the c ...

Positions of bridges follow the written chain, without caps; N, C: chain ends. Residues, ends and D or L forms follow the SMILES beside them.

T4 sequence (P16389 whole entry P359S): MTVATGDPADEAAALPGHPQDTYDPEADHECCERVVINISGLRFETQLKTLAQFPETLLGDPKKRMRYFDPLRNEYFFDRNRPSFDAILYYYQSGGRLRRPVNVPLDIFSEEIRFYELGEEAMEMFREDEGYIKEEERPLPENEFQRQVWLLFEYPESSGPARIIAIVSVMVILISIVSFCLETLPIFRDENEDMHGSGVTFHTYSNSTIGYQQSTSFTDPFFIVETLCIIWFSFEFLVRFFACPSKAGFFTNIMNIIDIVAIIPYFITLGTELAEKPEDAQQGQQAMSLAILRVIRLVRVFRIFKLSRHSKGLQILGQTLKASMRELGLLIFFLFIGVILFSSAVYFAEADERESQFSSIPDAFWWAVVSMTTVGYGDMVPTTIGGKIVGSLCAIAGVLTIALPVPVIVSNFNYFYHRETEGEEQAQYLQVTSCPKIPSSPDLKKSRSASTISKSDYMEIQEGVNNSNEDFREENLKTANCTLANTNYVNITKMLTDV
T3 sequence (P16389 whole entry T383V): as the sequence (P16389 whole entry P359S) above, with S359P, T383V counted along it
T2 sequence (P16389 whole entry D352E): as the sequence (P16389 whole entry P359S) above, with D352E, S359P counted along it

`CC[C@H](C)[C@@H]1NC(=O)[C@@H]2CSSC[C@H](NC(=O)[C@H](C)N)C(=O)N[C@@H](CO)C(=O)N[C@@H](CCCCN)C(=O)N3CCC[C@H]3C(=O)N[C@H]3CSSC[C@H](NC(=O)[C@H](CCCNC(=N)N)NC(=O)CNC(=O)[C@H](CC(N)=O)NC1=O)C(=O)N[C@@H](Cc1c[nH]cn1)C(=O)N[C@H](C(=O)N[C@@H](Cc1ccc(O)cc1)C(=O)N[C@@H](Cc1ccc(O)cc1)C(=O)O)CSSC[C@H](NC(=O)[C@H](Cc1ccc(O)cc1)NC(=O)[C@H](CCCCN)NC(=O)[C@H](CCCNC(=N)N)NC3=O)C(=O)N[C@@H]([C@@H](C)CC)C(=O)N[C@@H](CC(=O)O)C(=O)N[C@@H](CCCCN)C(=O)NCC(=O)N[C@@H](C)C(=O)N[C@@H](CCCNC(=N)N)C(=O)N[C@@H](CC(N)=O)C(=O)NCC(=O)N[C@@H](CCCCN)C(=O)N2` [BmK86-P1] (H-ACSKPCRKYCIDKGARNGKCINGRCHCYY-OH; disulfide 2-20, 6-25, 10-27 (inferred); N-terminus and C-terminus assumed): the “inhibition of hKv3.2 channel currents” value in assay [1] came to 3.8 ± 0.7%. Moreover, in assay [2], the “inhibition of hKv1.2-D352E channel currents” value came out at 74.8 ± 1.2%. Also, the “inhibition of hKv1.2-T383V channel currents” value in assay [3] amounted to 32.1 ± 2.8%. The “inhibition of hKv1.2-P359S channel currents” value in assay [4] turned out to be 72.4 ± 5.5%. The “inhibition of rKv4.2 channel currents” value in assay [5] is 11.0 ± 1.8%. Also, the IC50 in assay [6] is 597 ± 114 nM.

As a reminder, the IC50 is the concentration needed to halve the response being measured.
